These results are taken from patent US9334278B2, “Pyrrolo[2,3-B]pyrazines as SYK inhibitors” (Hoffmann-La Roche Inc., priority 2012, dated 2016).

Structures are written as SMILES.

The target of assay [1] is recombinant human SYK360-635 (Spleen Tyrosine Kinase) (Homo sapiens (Human), UniProt P43405). In words: SYK kinase assay (33P filtration, IC50 of SYK inhibition). As to conditions: read-out: ENZYME_FILTRATION_IC50; SYK 0.5 nM, ATP 20 μM, 33P filtration.
Description: Determination of IC50 of Spleen Tyrosine Kinase (SYK) inhibition:
SYK kinase assay is a standard kinase assay adapted to a 96 well plate format. This assay is performed in 96-well format for IC50 determination with 8 samples which represented 10 half log dilutions and a 40 μL reaction volume. The assay measures the incorporation of radiolabeled ^33P γATP into an N-terminally biotinylated peptide substrate, derived from naturally occurring phosphoacceptor consensus sequence (Biotin-11aa DY*E). Phosphorylated products were detected upon termination of reactions with EDTA and the addition of Streptavidin coated beads.
BSA: Bovine Serum Albumin Fraction V, fatty acid free (Roche Diagnostics GmbH, Cat. No. 9100221) diluted to a final concentration of 0.1%
Assay Dilution Buffer (ADB): 50 mM HEPES, 0.1 mM EGTA, 0.1 mM Na Vanadate, 0.1 mM (3-glycerophosphate, 10 mM MgCl2, 1 mM DTT, 0.1% BSA, pH 7.5
Bead wash buffer: 10 g/L PBS (Phosphate buffered saline) with 2M NaCl+1% phosphoric acid.
DMSO and the mixture was incubated for 10 min at RT.
The kinase reaction was initiated by the addition of 10 μL 4× substrate cocktail containing the DYE peptide substrate [0 or 5 μM], ATP [20 μM] and ^33PγATP [2 μCi/r×n]. After incubation at 30° C. for 15 min, the reaction was terminated by the transfer of 25 μL of the reaction sample to a 96 well 0.65 μm Millipore MADVNOB membrane/plate containing 200 μL 5 mM EDTA and 20% Streptavidine coated beads in PBS.
The unbound radionucleotides were washed under vacuum with 3×250 μL 2M NaCl; 2×250 μL 2M NaCl+1% phosphoric acid; 1×250 μL H2O. After the last wash membrane/plates were transferred to an adaptor plate, heat dried for 15 min at 60° C., and 50 μL scintillation cocktail was added to each well and 4 h later the amount of radioactivity was counted in a top counter.
For assay [2], the system named is Human B cell lymphoma cell line Ramos. In words: Ramos Calcium Influx FLIPR Assay. In kind it is cell-based. As to conditions: Ramos cells, anti-human IgM 10 μg/mL stimulation, read-out: RAMOS_IC50. The protocol: Ramos Calcium Influx FLIPR Assay
Human B cell lymphoma cell line Ramos was cultivated in RPMI-1640 with 10% Fetal Bovine Serum (Invitrogen). Cells were seeded into assay plate and loaded with calcium dye by adding 30 μl of dye loading buffer according to manufacturer's instruction (Beckton Dickinson Calcium Kit, Cat#80500). The cells were then treated with serial diluted compounds for 30 min before stimulation. Baseline fluorescence was recorded for about 20 seconds followed by stimulation with mouse anti-human IgM (10 μg/mL, clone M2E6, Antibody Solutions Inc.) for Ramos cells, and record of the maximal fluorescent counts in each well. Maximal counts divided by baseline counts, defined as fold change from baseline for each well, was used for IC50 calculation.

For assay [3], the system named is B cell CD69 up-regulation in human whole blood. In words: B Cell CD69 Up-Regulation Assay in Human Whole Blood. In kind it is cell-based. As to conditions: anti-human IgM 50 μg/mL for 20 h, CD69hi CD20+ B cells. The protocol:
B Cell CD69 Up-Regulation Assay in Human Whole Blood
Human Blood was collected from healthy volunteers into Vacutainers (BD Biosciences, San Jose, Calif.) containing sodium heparin. Test compound was suspended in DMSO and nine half-log serial dilutions were made. The concentration of […] in the assay was 0.5%. 100 μL whole blood was pre-incubated with compound for 30 min and then stimulated with goat F(ab′)2 anti-human IgM (50 μg/mL, Southern Biotech) for 20 h. At the end of the 20 hour incubation, samples were incubated with fluorochrome-conjugated antibodies, PE mouse anti-human CD20 and APC Mouse anti-human CD69 (BD Biosciences), for 30 minutes. Samples were then lysed with Lyse solution (BD) and washed with PBS containing 2% fetal bovine serum (FBS). Fluorescent signals were acquired on flow cytometer LSR II (BD) and data were analyzed by Flow Jo. The percentage of activated (CD69hi) B-cell lymphocytes (CD20+) were determined using un-stimulated (negative control) and stimulated (positive control) wells as reference guidelines. The percentage inhibition was calculated and an IC50 curve was constructed using GraphPad Prism software with sigmoidal curve fitting.

For the compound `Cc1c(Nc2cnc3[nH]cc(C(=O)NC(C)(C)C)c3n2)cnn1C` [Compound I-16, N-tert-butyl-2-(1,5-dimethyl-1H-pyrazol-4-ylamino)-5H-pyrrolo[2,3-b]pyrazine-7-carboxamide], the IC50 in assay [1] came to 92.4 nM; in assay [2], 168 nM; in assay [3] it was 375 nM.
Taken in the same sequence, the figures for `Cc1ccc(Nc2cnc3[nH]cc(C(=O)NC(C)(C)C)c3n2)cn1` [Compound I-6, N-tert-butyl-2-(6-methylpyridin-3-ylamino)-5H-pyrrolo[2,3-b]pyrazine-7-carboxamide] were 17.1 nM, 115 nM and 430 nM.
Taken in the same sequence, the figures for `Cc1ncc(Nc2cnc3[nH]cc(C(=O)NC(C)(C)C)c3n2)cn1` [Compound I-7, N-tert-butyl-2-(2-methylpyrimidin-5-ylamino)-5H-pyrrolo[2,3-b]pyrazine-7-carboxamide] were 164 nM, 283 nM and 258 nM.
On to `Cc1cc(Nc2cnc3[nH]cc(C(=O)NC(C)(C)C)c3n2)sn1` [Compound I-18, N-tert-butyl-2-(3-methylisothiazol-5-ylamino)-5H-pyrrolo[2,3-b]pyrazine-7-carboxamide], for which the IC50 was 2 nM in assay [1], 78.9 nM in assay [2] and 125 nM in assay [3].
In the same order, the values of `CC(C)(C)NC(=O)c1c[nH]c2ncc(Nc3ccc(S(C)(=O)=O)cc3)nc12` [Compound I-20, N-tert-butyl-2-(4-(methylsulfonyl)phenylamino)-5H-pyrrolo[2,3-b]pyrazine-7-carboxamide] are 30 nM, 338 nM and 506 nM.
As for `CC(N)c1cccc(Nc2cnc3[nH]cc(C(=O)NC(C)(C)C)c3n2)c1` (stereo not drawn) [Compound I-27, 2-(3-(1-aminoethyl)phenylamino)-N-tert-butyl-5H-pyrrolo[2,3-b]pyrazine-7-carboxamide], the IC50 in assay [1] came to 18.8 nM; in assay [2] it was 223 nM; in assay [3] it was 631 nM.
Taken in the same sequence, the figures for `Cn1ccc(Nc2cnc3[nH]cc(C(=O)NC(C)(C)C)c3n2)n1` [Compound I-3, N-tert-butyl-2-(1-methyl-1H-pyrazol-3-ylamino)-5H-pyrrolo[2,3-b]pyrazine-7-carboxamide] were 21.1 nM, 146 nM and 204 nM.
Taken in the same sequence, the figures for `Cc1cc(Nc2cnc3[nH]cc(C(=O)NC(C)(C)C)c3n2)[nH]n1` [Compound I-9, N-tert-butyl-2-(3-methyl-1H-pyrazol-5-ylamino)-5H-pyrrolo[2,3-b]pyrazine-7-carboxamide] were 15.5 nM, 93.1 nM and 343 nM.
Taken in the same sequence, the figures for `Cc1ccc(Nc2cnc3[nH]cc(C(=O)NC(C)(C)CO)c3n2)nc1` [Compound I-2, N-(1-hydroxy-2-methylpropan-2-yl)-2-(5-methylpyridin-2-ylamino)-5H-pyrrolo[2,3-b]pyrazine-7-carboxamide] were 27.4 nM, 245 nM and 535 nM.
Consider `Cn1ncc2c1CCCN2c1cnc2[nH]cc(C(=O)NC(C)(C)C)c2n1` [Compound I-33, N-tert-butyl-2-(1-methyl-6,7-dihydro-1H-pyrazolo[4,3-b]pyridin-4(5H)-yl)-5H-pyrrolo[2,3-b]pyrazine-7-carboxamide], for which the IC50 in assay [1] was 167 nM; in assay [2], 791 nM; in assay [3] it was 1460 nM.
In the case of `Cn1cc(Nc2cnc3[nH]cc(C(=O)NC(C)(C)CO)c3n2)cn1` [Compound I-17, N-(1-hydroxy-2-methylpropan-2-yl)-2-(1-methyl-1H-pyrazol-4-ylamino)-5H-pyrrolo[2,3-b]pyrazine-7-carboxamide], the IC50 in assay [1] is 49.9 nM; in assay [2], 207 nM; in assay [3], 193 nM.
As for `Cn1cc(Nc2cnc3[nH]cc(C(=O)NC(C)(C)C)c3n2)cn1` [Compound I-5, N-tert-butyl-2-(1-methyl-1H-pyrazol-4-ylamino)-5H-pyrrolo[2,3-b]pyrazine-7-carboxamide], the IC50 is 13.7 nM in assay [1], 110 nM in assay [2] and 75.8 nM in assay [3].
